Tests used:
Details in all cases: human; call rule not given here
Hepatotoxicity [1] = assay: FDA HLAED, liver enzyme composite activity
Hepatotoxicity [2] = assay: FDA HLAED, serum glutamic pyruvic transaminase (SGPT) increase
Hepatotoxicity [3] = assay: FDA HLAED, lactate dehydrogenase (LDH) increase
Hepatotoxicity [4] = assay: FDA HLAED, gamma-glutamyl transferase (GGT) increase
Hepatotoxicity [5] = assay: FDA HLAED, serum glutamic oxaloacetic transaminase (SGOT) increase
Hepatotoxicity [6] = assay: FDA HLAED, alkaline phosphatase increase
For GGT Increase - Index Value in this document: reference of the scale not given here.
For LDH Increase - Index Value in this document: reference of the scale not given here.

Compound	Composite Activity - Active (Hepatotoxicity [1])	Composite Activity - Marginal (Hepatotoxicity [1])	Composite Activity - Score (Hepatotoxicity [1])	SGPT Increase - Activity Score (Hepatotoxicity [2])	SGPT Increase - Index Value (Hepatotoxicity [2])	SGPT Increase - Number of Reports (Hepatotoxicity [2])	LDH Increase - Activity Score (Hepatotoxicity [3])	LDH Increase - Index Value (Hepatotoxicity [3])	LDH Increase - Number of Reports (Hepatotoxicity [3])	GGT Increase - Activity Score (Hepatotoxicity [4])	GGT Increase - Index Value (Hepatotoxicity [4])	GGT Increase - Number of Reports (Hepatotoxicity [4])	SGOT Increase - Activity Score (Hepatotoxicity [5])	SGOT Increase - Index Value (Hepatotoxicity [5])	SGOT Increase - Number of Reports (Hepatotoxicity [5])	Alkaline Phosphatase Increase - Activity Score (Hepatotoxicity [6])	Alkaline Phosphatase Increase - Index Value (Hepatotoxicity [6])	Alkaline Phosphatase Increase - Number of Reports (Hepatotoxicity [6])	further results
COc1cc([C@@H]2c3cc4c(cc3[C@H](O)[C@H]3COC(=O)[C@H]23)OCO4)cc(OC)c1OC [PODOFILOX]	0	0	Inactive	Inactive	0	< 4	Inactive	0	< 4	Inactive	0	< 4	Inactive	0	< 4	Inactive	0	< 4	
CC[C@H](C)C(=O)O[C@H]1C[C@H](O)C=C2C=C[C@H](C)[C@H](CC[C@@H](O)C[C@@H](O)CC(=O)O)[C@H]21 [PRAVASTATIN]	4	1	Active	Active	6.3	>= 4	Marginally Active	3.1	>= 4	Active	5.3	>= 4	Active	6.2	>= 4	Active	4.5	>= 4	
O=C1CN=C(c2ccccc2)c2cc(Cl)ccc2N1CC1CC1 [PRAZEPAM]	0	0	Inactive	Inactive	0.3	< 4	Inactive	0	< 4	Inactive	0	< 4	Inactive	0.3	< 4	Inactive	0.3	< 4	
CCN(CC)CCNC(=O)c1ccc(N)cc1 [PROCAINAMIDE]	0	0	Inactive	Inactive	0	< 4	Inactive	0	< 4	Inactive	0	< 4	Inactive	0	< 4	Inactive	0	< 4	
CCCNCC(O)COc1ccccc1C(=O)CCc1ccccc1 (stereo unspecified) [PROPAFENONE]				Active	4.7	>= 4	Inactive	1.9	< 4	Inactive	2.9	< 4	Active	5.7	>= 4	Active	7.6	>= 4	Composite Activity - Active (Hepatotoxicity [1]; Liver): 3; Composite Activity - Marginal (Hepatotoxicity [1]; Liver): 0; Composite Activity - Score (Hepatotoxicity [1]; Liver): Active
CC(C)c1cccc(C(C)C)c1O [PROPOFOL]				Inactive	0.5	>= 4	Inactive	0.5	>= 4	Inactive	0.1	< 4	Inactive	0.7	>= 4	Inactive	0.4	>= 4	Composite Activity - Active (Hepatotoxicity [1]; Liver): 0; Composite Activity - Marginal (Hepatotoxicity [1]; Liver): 0; Composite Activity - Score (Hepatotoxicity [1]; Liver): Inactive
Fc1ccccc1C1=NCC(=S)N(CC(F)(F)F)c2ccc(Cl)cc21 [QUAZEPAM]	0	0	Inactive	Inactive	0	< 4	Inactive	0	< 4	Inactive	0	< 4	Inactive	0	< 4	Inactive	0	< 4	
CNC(=C[N+](=O)[O-])NCCSCc1ccc(CN(C)C)o1 [RANITIDINE]	0	0	Inactive	Inactive	1	>= 4	Inactive	0.3	>= 4	Inactive	0	< 4	Inactive	1.2	>= 4	Inactive	1.1	>= 4	
CO[C@H]1/C=C/O[C@@]2(C)Oc3c(C)c(O)c4c(c3C2=O)C2=NC3(CCN(CC(C)C)CC3)NC2=C(NC(=O)/C(C)=C\C=C\[C@H](C)[C@H](O)[C@@H](C)[C@@H](O)[C@@H](C)[C@H](OC(C)=O)[C@@H]1C)C4=O [RIFABUTIN]				Active	31.8	>= 4	Inactive	5.3	< 4	Active	18.5	>= 4	Active	31.8	>= 4	Active	15.9	>= 4	Composite Activity - Active (Hepatotoxicity [1]; Liver): 4; Composite Activity - Marginal (Hepatotoxicity [1]; Liver): 0; Composite Activity - Score (Hepatotoxicity [1]; Liver): Active
Nc1nc2ccc(OC(F)(F)F)cc2s1 [RILUZOLE]	1	0	Inactive	Inactive	22.6	< 4	Inactive	22.6	< 4	Inactive	22.6	< 4	Inactive	22.6	< 4	Active	45.2	< 4	
CC(N)C12CC3CC(CC(C3)C1)C2 (stereo unspecified) [RIMANTADINE]	0	0	Inactive	Inactive	1.7	< 4	Inactive	0	< 4	Inactive	0	< 4	Inactive	3.3	< 4	Inactive	1.7	< 4	
CCC(=O)[C@@]1(C)[C@H](C)C[C@H]2[C@@H]3CCC4=CC(=O)C=C[C@]4(C)[C@H]3[C@@H](O)C[C@@]21C [RIMEXOLONE]	0	0	Inactive	Inactive	0	< 4	Inactive	0	< 4	Inactive	0	< 4	Inactive	0	< 4	Inactive	0	< 4	

Source: ChEMBL document CHEMBL1697781, “Assessment of the health effects of chemicals in humans: II. Construction of an adverse effects database for QSAR modeling” (Curr Drug Discov Technol, 2004)
